Results as given in US10065941B2, “Aminotriazine derivative and pharmaceutical composition comprising the same” (Shionogi & Co., Ltd., priority 2013, dated 2018).

Molecular target: human P2X3 receptor (Homo sapiens (Human), UniProt P56373)
Assay: Evaluation of human P2X3 receptor inhibitory activity (Test Example 1)
Assay type: cell-based
Conditions: C6BU-1 cell transfected with human P2X3 receptor gene, FLIPR 384
Experimental: Stably expressing cell line (C6BU-1 cell transfected with human P2X3 receptor gene (GenBank accession number Y07683) was used. The cells were seeded in a 384-well PDL-coated microtiter plate at a concentration of 3000 cells/well and cultured in the medium (8.3% fetal bovine serum, 8.3% horse serum, and 1% antibiotic and antifungal in DMEM) for one day at 37° C. under 5% carbon dioxide atmosphere. The medium was replaced with 4 μM Fluo-3-AM solution (20 mM HEPES, 137 mM NaCl, 2.7 mM KCl, 0.9 mM MgCl2, 5.0 mM CaCl2, 5.6 mM D-glucose, 2.5 mM probenecid, 0.5% BSA, and 0.04% Pluronic F-127, pH 7.5) and incubated at 37° C. under 5% dioxide carbon atmosphere for one hour. The plate was washed with washing buffer (20 mM HEPES, 137 mM NaCl, 2.7 mM KCl, 0.9 mM MgCl2, 5.0 mM CaCl2, 5.6 mM D-glucose, 2.5 mM probenecid, pH7.5), and each well was added with 20 μL of the washing buffer. The plate was placed in High-Throughput Screening System FLIPR 384 (Molecular Device Co.). Measurement of fluorescence intensity by FLIPR 384 was started, and 20 μL of DMSO solutions containing different concentrations of the test compound as prepared by dilution with dilution buffer (20 mM HEPES, 137 mM NaCl, 2.7 mM KCl, 0.9 mM MgCl2, 5.0 mM CaCl2, 5.6 mM D-glucose, 2.5 mM probenecid, 0.1% Pluronic F-127, pH7.5) were dispensed to each well through the built-in automatic dispenser. Five minutes after, 150 nM ATP solution (25 μL) prepared by dilution with the dilution buffer was dispensed through the built-in automatic dispenser, and the measurement of fluorescence intensity was continued for 4 min. For each well, the specific maximum fluorescence intensity was calculated as the ratio of the maximum fluorescence intensity after addition of the ATP solution to the fluorescence intensity at the starting of the measurement. […] The specific maximum fluorescence intensity and IC50 were calculated using Spotfire (Science & Technology Systems, Inc.)

Sequence of human P2X3 receptor (P56373 whole entry): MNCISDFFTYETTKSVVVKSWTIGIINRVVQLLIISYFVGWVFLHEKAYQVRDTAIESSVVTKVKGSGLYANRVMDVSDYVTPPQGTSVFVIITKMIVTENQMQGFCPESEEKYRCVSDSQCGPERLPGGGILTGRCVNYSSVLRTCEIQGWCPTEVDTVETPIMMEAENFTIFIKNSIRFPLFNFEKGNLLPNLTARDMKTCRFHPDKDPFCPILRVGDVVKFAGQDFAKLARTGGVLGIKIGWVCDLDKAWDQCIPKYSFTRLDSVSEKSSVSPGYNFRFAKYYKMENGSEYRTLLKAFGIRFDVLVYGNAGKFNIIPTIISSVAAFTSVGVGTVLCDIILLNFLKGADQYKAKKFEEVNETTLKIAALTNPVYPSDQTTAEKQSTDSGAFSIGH

CC(=O)c1ccc(Oc2ccc(/N=c3\[nH]c(=O)n(CCC(=O)O)c(=O)n3Cc3ccc(Cl)cc3)cc2)nc1 [Compound R-305]
IC50: 7 nM

COC(=O)C(C)(C)Cn1c(=O)[nH]/c(=N\c2ccc(Oc3cc(Cl)ccn3)cc2)n(Cc2ccc(Cl)cc2)c1=O [Compound I-081]
IC50: 38 nM

COC(=O)[C@H](C)[C@H](C)n1c(=O)[nH]/c(=N\c2ccc(Oc3cc(F)nc(F)c3)cc2)n(Cc2ccc(Cl)cc2)c1=O [Compound R-156]
IC50: 35 nM

Cc1ccc(Oc2ccc(/N=c3\[nH]c(=O)n(C[C@H](C)C(=O)O)c(=O)n3Cc3ccc(Cl)cc3)cc2)nc1 [Compound I-054]
IC50: 5 nM

COC(=O)[C@@H](C)Cn1c(=O)[nH]/c(=N\c2ccc(Oc3ccncc3)cc2)n(Cc2ccc(Cl)cc2)c1=O [Compound R-206]
IC50: 5 nM

O=c1[nH]/c(=N\c2ccc(Oc3ccccn3)cc2)n(Cc2ccc(Cl)cc2)c(=O)n1[C@H]1C[C@@H](C(=O)O)C1 [Compound I-175]
IC50: 9 nM

Cc1ccc(Cn2c(=O)n(CCC(=O)O)c(=O)[nH]/c2=N\c2ccc(Oc3ccccn3)c(C)c2)cc1 [Compound R-282]
IC50: 23 nM

C[C@@H](Cn1c(=O)[nH]/c(=N\c2ccc(Oc3cnc(C#N)nc3)cc2)n(Cc2ccc(Cl)cc2)c1=O)C(=O)O [Compound R-246]
IC50: 6 nM

COC(=O)C(C)(C)Cn1c(=O)[nH]/c(=N\c2ccc(Oc3cccnn3)cc2)n(Cc2ccc(Cl)cc2)c1=O [Compound R-148]
IC50: 5 nM

CC(C)(Cn1c(=O)[nH]/c(=N\c2ccc(Oc3cc(F)nc(F)c3)cc2)n(Cc2ccc(Cl)cc2)c1=O)C(=O)O [Compound R-070]
IC50: 7 nM

CCOC(=O)Cn1c(=O)[nH]/c(=N\c2ccc(Oc3ccc(C#N)cn3)cc2)n(Cc2ccc(Cl)cc2)c1=O [Compound R-313]
IC50: 3 nM

Cc1nccnc1Oc1ccc(/N=c2\[nH]c(=O)n(C[C@H](C)C(=O)O)c(=O)n2Cc2ccc(Cl)cc2)cc1 [Compound R-237]
IC50: 9 nM

CC(C)(Cn1c(=O)[nH]/c(=N\c2ccc(Oc3ncns3)cc2)n(Cc2ccc(Cl)cc2)c1=O)C(=O)O [Compound R-163]
IC50: 14 nM

CC(C)(Cn1c(=O)[nH]/c(=N\c2ccc(Oc3cccnn3)cc2)n(Cc2ccc(Cl)cc2)c1=O)C(=O)O [Compound R-151]
IC50: 11 nM

COC(=O)[C@@H](C)Cn1c(=O)[nH]/c(=N\c2ccc(Oc3ccc(C)cn3)cc2)n(Cc2ccc(C)cc2)c1=O [Compound I-108]
IC50: 4 nM

O=C(O)C[C@H](O)Cn1c(=O)[nH]/c(=N\c2ccc(Oc3ccc(F)cn3)cc2)n(Cc2ccc(Cl)cc2)c1=O [Compound I-090]
IC50: 72 nM

Cc1ccc(Cn2c(=O)n(C[C@H](C)C(=O)O)c(=O)[nH]/c2=N\c2ccc(Oc3ccccn3)c(F)c2)cc1 [Compound I-210]
IC50: 7 nM

C[C@@H](Cn1c(=O)[nH]/c(=N\c2ccc(Oc3nc4ncccc4o3)cc2)n(Cc2ccc(Cl)cc2)c1=O)C(=O)O [Compound R-204]
IC50: 8 nM

COC(=O)[C@H](C)[C@H](C)n1c(=O)[nH]/c(=N\c2ccc(Oc3cccc(F)n3)cc2)n(Cc2ccc(C)cc2)c1=O [Compound I-104]
IC50: 5 nM

COC(=O)[C@@H](C)Cn1c(=O)[nH]/c(=N\c2ccc(Oc3ccnc(Cl)c3)cc2)n(Cc2ccc(Cl)cc2)c1=O [Compound R-086]
IC50: 7 nM

CCc1oc2ccc(/N=c3\[nH]c(=O)[nH]c(=O)n3Cc3ccc(Cl)cc3)cc2c1C [Compound R-173]
IC50: 376 nM

Cc1cncc(Oc2ccc(/N=c3\[nH]c(=O)n(C[C@H](C)C(=O)O)c(=O)n3Cc3ccc(Cl)cc3)cc2)c1 [Compound R-185]
IC50: 12 nM

COC(=O)[C@@H](C)Cn1c(=O)[nH]/c(=N\c2ccc(Oc3ncccc3F)cc2)n(Cc2ccc(CF)cc2)c1=O [Compound I-207]
IC50: 12 nM

COC(=O)[C@H](C)[C@H](C)n1c(=O)[nH]/c(=N\c2ccc(Oc3ccccn3)c(F)c2)n(Cc2ccc(Cl)cc2)c1=O [Compound I-228]
IC50: 21 nM

CCn1c(=O)[nH]/c(=N\c2ccc(Oc3cc(Cl)c(C(=O)O)cn3)cc2)n(Cc2ccc(Cl)cc2)c1=O [Compound R-054]
IC50: 26 nM

COC(=O)[C@@H](C)Cn1c(=O)[nH]/c(=N\c2ccc(Oc3cccc(F)n3)cc2)n(Cc2ccc(F)cc2F)c1=O [Compound I-026]
IC50: 17 nM

COC(=O)[C@H](Cn1c(=O)[nH]/c(=N\c2ccc(Oc3ccccn3)cc2)n(Cc2ccc(Cl)cc2)c1=O)OC [Compound I-143]
IC50: 5 nM

C[C@@H](Cn1c(=O)[nH]/c(=N\c2ccc(Oc3ncccc3OC(F)F)cc2)n(Cc2ccc(Cl)cc2)c1=O)C(=O)O [Compound I-044]
IC50: 26 nM

COC(=O)C(C)(C)Cn1c(=O)[nH]/c(=N\c2ccc(Oc3noc(C)n3)cc2)n(Cc2ccc(Cl)cc2)c1=O [Compound R-113]
IC50: 13 nM

Cc1cc(/N=c2\[nH]c(=O)n(CC(C)(C)C(=O)O)c(=O)n2Cc2ccc(Cl)cc2)ccc1N1CCCCC1 [Compound R-143]
IC50: 97 nM

CCn1c(=O)[nH]/c(=N\c2ccc(Oc3ccc(C(=O)OC)c(Cl)n3)cc2)n(Cc2ccc(Cl)cc2)c1=O [Compound R-064]
IC50: 12 nM

COC(=O)C(C)(C)Cn1c(=O)[nH]/c(=N\c2ccc(Oc3cnc(C(F)(F)F)cn3)cc2)n(Cc2ccc(Cl)cc2)c1=O [Compound R-036]
IC50: 11 nM

Cc1ccc(Cn2c(=O)n(C[C@H](C)C(=O)O)c(=O)[nH]/c2=N\c2ccc(Oc3ccc(Cl)cn3)cc2)cc1 [Compound I-100]
IC50: 4 nM

C[C@@H](Cn1c(=O)[nH]/c(=N\c2ccc(Oc3ncccc3C#N)cc2)n(Cc2ccc(Cl)cc2)c1=O)C(=O)O [Compound I-047]
IC50: 22 nM

O=c1[nH]/c(=N\c2ccc(Oc3ccccn3)cc2)n(Cc2ccc(Cl)cc2)c(=O)n1[C@H]1C[C@H](C(=O)O)C1 [Compound I-174]
IC50: 6 nM

Cc1cnc(Oc2ccc(/N=c3\[nH]c(=O)n([C@@H](C)[C@@H](C)C(=O)O)c(=O)n3Cc3ccc(Cl)cc3)cc2)s1 [Compound R-183]
IC50: 7 nM

COc1cccnc1Oc1ccc(/N=c2\[nH]c(=O)n(CC(C)(C)C(=O)O)c(=O)n2Cc2ccc(Cl)cc2)cc1 [Compound I-164]
IC50: 29 nM

CC(C)n1c(=O)[nH]/c(=N\c2ccc(Oc3cccc(C#N)n3)c(Cl)c2)n(Cc2ccc(Cl)cc2)c1=O [Compound R-011]
IC50: 49 nM

COC(=O)c1ccc(NC(=O)c2cccc(Oc3ccc(/N=c4\[nH]c(=O)n(C)c(=O)n4C[C@H]4CC[C@H](C)CC4)cc3)n2)cc1 [Compound R-004]
IC50: 123 nM

C[C@@H](C(=O)O)[C@H](C)n1c(=O)[nH]/c(=N\c2ccc(Oc3cnccn3)c(F)c2)n(Cc2ccc(Cl)cc2)c1=O [Compound R-125]
IC50: 7 nM

COC(=O)C(C)(C)Cn1c(=O)[nH]/c(=N\c2ccc(OC3CCC3)c(F)c2)n(Cc2ccc(Cl)cc2)c1=O [Compound R-073]
IC50: 31 nM

COc1ccc(Oc2ccc(/N=c3\[nH]c(=O)n(CC(C)(C)C(=O)O)c(=O)n3Cc3ccc(Cl)cc3)cc2)nc1 [Compound I-093]
IC50: 16 nM

C[C@@H](Cn1c(=O)[nH]/c(=N\c2ccc(Oc3cnccn3)c(F)c2)n(Cc2ccc(Cl)cc2)c1=O)C(=O)O [Compound R-055]
IC50: 7 nM

CCOC(=O)[C@H]1C[C@H](n2c(=O)[nH]/c(=N\c3ccc(Oc4ccccn4)cc3)n(Cc3ccc(Cl)cc3)c2=O)C1 [Compound I-170]
IC50: 15 nM

COC(=O)[C@@H](C)Cn1c(=O)[nH]/c(=N\c2ccc(Oc3cccc(F)n3)cc2)n(Cc2ccc(C)cc2)c1=O [Compound I-053]
IC50: 6 nM
